Experimental data taken from paper PMC3277864 (Molecular Pharmaceutics, 2011).
Where a SMILES comes first, the peptide text is derived from it. [ ]: non-standard residue; d: D form. The star is where a group is joined. Dolaproine = CO[C@@H]([C@@H]1CCCN1)[C@@H](C)C(=O)O; Dil = CC[C@H](C)[C@H](NC)[C@@H](CC(=O)O)OC; X1 = C[C@@H](N*)[C@@H](O)c1ccccc1; NMeV = CN[C@H](C(=O)O)C(C)C

Experiments:
[1] = system: BALB/c mice; test: Gross toxicity of mice; type: in vivo, mouse
[2] = system: HEK-293L cells; test: Cytotoxicity assay; type: cell-based, human; conditions: 48 hrs incubation
[3] = system: 4T1 mammary carcinoma; conditions: murine breast cancer 4T1 model, 0.5 mg/kg; cited from earlier work
[4] = system: MDA-MB-435 cells; test: Cytotoxicity assay; type: cell-based, human; conditions: 48 hrs incubation
[5] = system: MDA-MB-435 cells; conditions: 72 hrs incubation period; cited from earlier work

CC[C@H](C)[C@@H]([C@@H](CC(=O)N1CCC[C@H]1[C@H](OC)[C@@H](C)C(=O)N[C@H](C)[C@@H](O)c1ccccc1)OC)N(C)C(=O)[C@@H](NC(=O)[C@@H](NC)C(C)C)C(C)C [MMAE, 1, monomethylauristatin E] (H-[NMeV]V[Dil][Dolaproine]-X1)
Dose beyond which found considerably toxic to mice [1]: 0.1 mg/kg
Death (%) ([1]; i.p. 5x, dose 0.1 mg/kg): 20%
Wt. loss (%) ([1]; i.p. 5x, dose 0.1 mg/kg, weighed for 3 weeks): 33.4%
Death (%) ([1]; i.p. 5x, dose 0.5 mg/kg): 100%
Death (%) ([1]; i.p. 5x, dose 1.5 mg/kg): 100%
In vitro cytotoxicity (comparison in words) [2]: more potent than the prodrugs 3 and 8
Animal death in 4T1 study [3]: all animals died
In vitro cytotoxicity (comparison in words) [4]: more potent than the prodrugs 3 and 8
Activities to MDA-MB-435 cells [5]: subnanomolar to low nanomolar activities
